In patent US20260365670A1, “EGFR INHIBITORS AND USES THEREOF” (DIZAL (JIANGSU) PHARMACEUTICAL CO., LTD., priority 2022, published 2026):
Where two headings read alike, the source gives them in different places.

Key:
EGFR wild type = target: T1, EGFR wild type (Homo sapiens, UniProt P00533); test: Inhibition of EGFR wild type biochemical enzymatic activity (HTRF); conditions: 1 mM ATP
T1 construct: purchased Carna Bio
Method: (§1) Biological Example 1: Inhibition of EGFR WT and Mutant Biochemical Enzymatic Activity
(§2) The inhibition potency of compounds against these enzymes was assessed using Homogenous Time Resolved Fluorescence approach (HTRF, CisBio. Cat No. 62TKOPEJ).
(§3) Inhibitory effects of the compounds were determined by measuring the enzymatic activity of EGFR enzyme phosphorylates 1 μM TK Substrate-biotin in the presence of 1 mM adenosine-5′-triphosphate (ATP) and varying concentrations of the test compound. The enzyme reaction buffer contains 5 mM MgCl2, 1 mM MnC12, 0.01% CHAPS, 1 mM dithiothreitol (DTT), 0.5% dimethylsulfoxide (DMSO), and 1× supplemented enzymatic buffer. The WT and mutant EGFR enzymes (SignalChem) were added to plates containing inhibitors, followed by activation of the kinase reaction by addition of ATP and peptide substrates. After incubation for 1 h at room temperature, the reaction was stopped by the addition of the detection reagent mix containing EDTA. The fluorescence was measured at 615 nm and 665 nm, respectively with excitation wavelength at 320 nm. The calculated signal ratio of 665 nm/615 nm is proportional to the kinase activity. The concentration of compound producing 50% inhibition of the respective kinase (IC50) was calculated using four-parameter logistic fit with XL-FIT.

[1] = target: T2, EGFR[T790M/C797S/d746-750] (Homo sapiens, UniProt P00533, C797S/DEL746-750/T790M); test: Inhibition of EGFR[T790M/C797S/d746-750] biochemical enzymatic activity (HTRF)
T2 construct: purchased Carna Bio
T2 sequence (P00533 with tags, fused parts or gaps DEL746-750/T790M/C797S limits assumed): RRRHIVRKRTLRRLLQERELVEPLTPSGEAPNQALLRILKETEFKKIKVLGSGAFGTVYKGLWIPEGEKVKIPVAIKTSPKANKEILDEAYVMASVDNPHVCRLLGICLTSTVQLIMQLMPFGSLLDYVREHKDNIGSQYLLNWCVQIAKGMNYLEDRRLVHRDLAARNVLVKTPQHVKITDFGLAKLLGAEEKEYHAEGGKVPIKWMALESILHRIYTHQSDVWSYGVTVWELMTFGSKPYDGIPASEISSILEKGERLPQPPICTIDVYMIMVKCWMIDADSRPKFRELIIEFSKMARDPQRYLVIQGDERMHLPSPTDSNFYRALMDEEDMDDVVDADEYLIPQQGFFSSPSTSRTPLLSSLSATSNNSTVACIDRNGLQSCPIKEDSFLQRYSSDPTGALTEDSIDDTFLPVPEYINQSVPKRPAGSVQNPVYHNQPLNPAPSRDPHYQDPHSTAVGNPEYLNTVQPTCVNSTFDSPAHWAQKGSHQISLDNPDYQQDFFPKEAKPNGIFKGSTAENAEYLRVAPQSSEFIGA
Method: as §1, §2, §3

EGFR[T790M/C797S/L858R] = target: T3, EGFR[T790M/C797S/L858R] (Homo sapiens, UniProt P00533, C797S/L858R/T790M); test: Inhibition of EGFR[T790M/C797S/L858R] biochemical enzymatic activity (HTRF); conditions: 1 mM ATP
T3 construct: purchased Carna Bio
T3 sequence (P00533 25-1210 T790M/C797S/L858R): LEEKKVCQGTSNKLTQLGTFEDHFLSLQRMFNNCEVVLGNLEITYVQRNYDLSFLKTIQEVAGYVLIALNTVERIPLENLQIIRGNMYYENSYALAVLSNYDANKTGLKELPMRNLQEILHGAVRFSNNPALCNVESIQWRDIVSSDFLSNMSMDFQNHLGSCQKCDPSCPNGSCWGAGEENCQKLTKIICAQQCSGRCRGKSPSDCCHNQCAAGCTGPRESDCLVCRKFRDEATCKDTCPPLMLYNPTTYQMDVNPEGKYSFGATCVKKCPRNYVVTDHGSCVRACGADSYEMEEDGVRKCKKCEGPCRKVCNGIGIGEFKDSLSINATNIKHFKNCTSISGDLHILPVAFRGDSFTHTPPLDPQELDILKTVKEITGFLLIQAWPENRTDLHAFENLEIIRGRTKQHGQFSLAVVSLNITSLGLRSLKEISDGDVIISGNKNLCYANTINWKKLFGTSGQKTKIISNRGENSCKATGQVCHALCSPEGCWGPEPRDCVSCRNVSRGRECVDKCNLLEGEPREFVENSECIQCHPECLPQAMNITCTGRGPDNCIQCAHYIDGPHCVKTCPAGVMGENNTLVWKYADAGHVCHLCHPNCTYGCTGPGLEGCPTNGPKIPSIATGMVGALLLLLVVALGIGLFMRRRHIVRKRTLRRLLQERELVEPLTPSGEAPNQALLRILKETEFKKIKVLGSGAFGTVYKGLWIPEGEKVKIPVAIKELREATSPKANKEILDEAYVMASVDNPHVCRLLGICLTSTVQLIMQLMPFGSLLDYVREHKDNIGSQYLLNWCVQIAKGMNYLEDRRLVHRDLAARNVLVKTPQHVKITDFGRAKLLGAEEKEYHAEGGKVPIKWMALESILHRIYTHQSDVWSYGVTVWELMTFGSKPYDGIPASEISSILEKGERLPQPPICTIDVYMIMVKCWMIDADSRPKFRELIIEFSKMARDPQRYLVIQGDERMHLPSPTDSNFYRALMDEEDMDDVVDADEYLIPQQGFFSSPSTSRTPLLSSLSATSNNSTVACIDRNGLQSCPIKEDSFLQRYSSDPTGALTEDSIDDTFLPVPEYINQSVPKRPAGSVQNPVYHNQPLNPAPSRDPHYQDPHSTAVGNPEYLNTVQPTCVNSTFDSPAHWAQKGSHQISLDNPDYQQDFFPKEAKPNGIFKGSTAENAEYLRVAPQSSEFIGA
Method: as §1, §2, §3

EGFR (C797S L858R) = target: T4, EGFR (C797S L858R) (Homo sapiens, UniProt P00533, C797S/L858R); test: Inhibition of EGFR (C797S L858R) biochemical enzymatic activity (HTRF); conditions: 1 mM ATP
T4 construct: purchased signalchem
T4 sequence (P00533 25-1210 C797S/L858R): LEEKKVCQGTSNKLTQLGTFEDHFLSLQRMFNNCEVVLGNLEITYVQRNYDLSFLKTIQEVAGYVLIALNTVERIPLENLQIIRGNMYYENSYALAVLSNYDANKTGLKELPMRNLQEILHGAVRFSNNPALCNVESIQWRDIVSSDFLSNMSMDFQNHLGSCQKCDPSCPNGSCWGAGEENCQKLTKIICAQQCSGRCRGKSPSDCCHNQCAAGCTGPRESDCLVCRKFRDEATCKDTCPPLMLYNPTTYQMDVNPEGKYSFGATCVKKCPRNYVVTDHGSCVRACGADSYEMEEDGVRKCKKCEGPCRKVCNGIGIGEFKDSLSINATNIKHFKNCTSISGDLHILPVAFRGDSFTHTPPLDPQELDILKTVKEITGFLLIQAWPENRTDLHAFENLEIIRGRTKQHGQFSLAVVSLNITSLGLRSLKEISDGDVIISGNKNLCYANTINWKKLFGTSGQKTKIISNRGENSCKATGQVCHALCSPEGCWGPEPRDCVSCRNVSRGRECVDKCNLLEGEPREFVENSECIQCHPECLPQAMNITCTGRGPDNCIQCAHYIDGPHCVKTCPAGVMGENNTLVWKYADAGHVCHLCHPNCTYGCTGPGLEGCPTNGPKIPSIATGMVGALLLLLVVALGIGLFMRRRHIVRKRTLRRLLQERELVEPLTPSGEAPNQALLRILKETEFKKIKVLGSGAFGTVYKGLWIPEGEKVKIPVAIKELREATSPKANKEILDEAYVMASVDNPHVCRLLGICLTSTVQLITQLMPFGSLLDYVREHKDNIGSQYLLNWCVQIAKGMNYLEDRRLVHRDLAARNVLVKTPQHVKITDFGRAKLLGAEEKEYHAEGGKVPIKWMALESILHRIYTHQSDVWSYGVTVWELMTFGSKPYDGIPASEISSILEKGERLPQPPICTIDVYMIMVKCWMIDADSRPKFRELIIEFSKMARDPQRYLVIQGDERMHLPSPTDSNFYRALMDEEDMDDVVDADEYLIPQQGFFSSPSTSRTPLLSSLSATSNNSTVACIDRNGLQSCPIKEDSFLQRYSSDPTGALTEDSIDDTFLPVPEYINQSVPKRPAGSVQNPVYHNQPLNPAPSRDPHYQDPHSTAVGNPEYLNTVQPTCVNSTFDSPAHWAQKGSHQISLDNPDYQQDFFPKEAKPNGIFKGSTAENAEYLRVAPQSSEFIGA
Method: as §1, §2, §3

EGFR L858R/T790M = target: T5, EGFR L858R/T790M (Homo sapiens, UniProt P00533, L858R/T790M); test: Inhibition of EGFR L858R/T790M biochemical enzymatic activity (HTRF); conditions: 1 mM ATP
T5 construct: purchased Carna Bio
Method: as §1, §2, §3

EGFR Exon19Del/T790M = target: T6, EGFR Exon19Del/T790M (Homo sapiens, UniProt P00533, DEL746-750/T790M); test: Inhibition of EGFR Exon19Del/T790M biochemical enzymatic activity (HTRF); conditions: 1 mM ATP
T6 construct: purchased Carna Bio
T6 sequence (P00533 with tags, fused parts or gaps DEL746-750/T790M limits assumed): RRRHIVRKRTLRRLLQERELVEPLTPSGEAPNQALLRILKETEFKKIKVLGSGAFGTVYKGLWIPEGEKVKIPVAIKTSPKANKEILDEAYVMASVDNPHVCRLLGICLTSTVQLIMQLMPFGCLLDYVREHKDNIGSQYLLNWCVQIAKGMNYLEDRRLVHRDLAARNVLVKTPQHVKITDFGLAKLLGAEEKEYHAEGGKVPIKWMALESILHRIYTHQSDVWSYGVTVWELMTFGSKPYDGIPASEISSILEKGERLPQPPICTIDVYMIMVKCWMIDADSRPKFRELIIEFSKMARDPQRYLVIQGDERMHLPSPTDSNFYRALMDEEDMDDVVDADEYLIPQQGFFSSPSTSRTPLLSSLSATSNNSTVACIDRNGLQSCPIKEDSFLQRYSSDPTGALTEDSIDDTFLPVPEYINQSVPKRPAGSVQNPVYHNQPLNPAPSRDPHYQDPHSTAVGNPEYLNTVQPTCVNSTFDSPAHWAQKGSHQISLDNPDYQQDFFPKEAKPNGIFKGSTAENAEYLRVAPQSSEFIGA
Method: as §1, §2, §3

[2] = test system: Ba/F3 cells expressing EGFR mutations; test: Cell proliferation assay, Ba/F3 cells expressing EGFR mutations (CellTiter-Glo, 72 hours); assay type: cell-based
Method: (§4) Biological Example 2: Cell Proliferation Assays
(§5) Ba/F3 cells expressing EGFR mutations were seeded in 384-well plates at 5000 cells/well in RPMI1640 medium containing […]. PC-9 at 500 cells/well was seeded into 384-well plates in RPMI1640 medium with 10% FBS. After overnight incubation, the assay plates were dosed with compounds at a series of concentrations. Alongside dosing the assay plates, the day 0 plate was processed using CellTiter-Glo® Luminescent Cell Viability Assay (Promega) to measure the number of viable cells (G0). The assay plates were further incubated for 72 hours and the number of viable cells (G3) was measured. The percentage of proliferation was calculated as: […]=100×(G3 value of sample well−G0 value)/(G3 value of DMSO control−G0 value). The concentration of compound producing 50% proliferation inhibition (GI50) was further calculated in best-fit curves using XLFit software. N/A=not available.

PC-9 = test: Cell proliferation assay, PC-9 cells (CellTiter-Glo, 72 hours); assay type: cell-based; conditions: PC9 cells
Method: as §4, §5

EGFR Exon19Del = target: T7, EGFR Exon19Del (Homo sapiens, UniProt P00533, DEL746-750); test: Inhibition of EGFR Exon19Del biochemical enzymatic activity (HTRF); conditions: read-out: IC50 @Del19
T7 construct: purchased Carna Bio
Method: as §1, §2, §3

EGFR (d746-750 C797S) = target: T8, EGFR (d746-750 C797S) (Homo sapiens, UniProt P00533, C797S/DEL746-750); test: Inhibition of EGFR (d746-750 C797S) biochemical enzymatic activity (HTRF); conditions: 1 mM ATP
T8 construct: purchased signalchem
Method: as §1, §2, §3

EGFR L858R = target: T9, EGFR L858R (Homo sapiens, UniProt P00533, L858R); test: Inhibition of EGFR L858R biochemical enzymatic activity (HTRF); conditions: 1 mM ATP
T9 construct: purchased Carna Bio
Method: as §1, §2, §3

[3] = EGFR wild type, 1 h at room temperature, read-out: IC50 @WT
[4] = EGFR[T790M/C797S/d746-750], 1 mM ATP, 1 h at room temperature, read-out: IC50 @T790M - C797S - Del19
[5] = EGFR[T790M/C797S/L858R], 1 h at room temperature, read-out: IC50 @T790M- C797S - L858R
[6] = EGFR (C797S L858R), 1 h at room temperature, read-out: IC50 @L858-C797S
[7] = EGFR L858R/T790M, 1 h at room temperature, read-out: IC50 @L858R-T790M
[8] = EGFR Exon19Del/T790M, 1 h at room temperature, read-out: IC50 @Del19-T790M
[9] = Mus musculus, BaF3, 72 h, BaF3 cells, EGFR DEL19 - C797S, read-out: GI50 DEL19 - C797S/BaF3
[10] = Mus musculus, BaF3, 72 h, BaF3 cells, EGFR L858R - C797S, read-out: GI50 L858R - C797S/BaF3
[11] = Mus musculus, BaF3, 72 h, BaF3 cells, EGFR L858R, read-out: GI50 L858R/BaF3
[12] = Homo sapiens, PC-9, 72 h, read-out: GI50 PC9
[13] = EGFR Exon19Del, 1 mM ATP, 1 h at room temperature
[14] = EGFR (d746-750 C797S), 1 h at room temperature, read-out: IC50 @Del19-C797S

T1 sequence (P00533 25-1210): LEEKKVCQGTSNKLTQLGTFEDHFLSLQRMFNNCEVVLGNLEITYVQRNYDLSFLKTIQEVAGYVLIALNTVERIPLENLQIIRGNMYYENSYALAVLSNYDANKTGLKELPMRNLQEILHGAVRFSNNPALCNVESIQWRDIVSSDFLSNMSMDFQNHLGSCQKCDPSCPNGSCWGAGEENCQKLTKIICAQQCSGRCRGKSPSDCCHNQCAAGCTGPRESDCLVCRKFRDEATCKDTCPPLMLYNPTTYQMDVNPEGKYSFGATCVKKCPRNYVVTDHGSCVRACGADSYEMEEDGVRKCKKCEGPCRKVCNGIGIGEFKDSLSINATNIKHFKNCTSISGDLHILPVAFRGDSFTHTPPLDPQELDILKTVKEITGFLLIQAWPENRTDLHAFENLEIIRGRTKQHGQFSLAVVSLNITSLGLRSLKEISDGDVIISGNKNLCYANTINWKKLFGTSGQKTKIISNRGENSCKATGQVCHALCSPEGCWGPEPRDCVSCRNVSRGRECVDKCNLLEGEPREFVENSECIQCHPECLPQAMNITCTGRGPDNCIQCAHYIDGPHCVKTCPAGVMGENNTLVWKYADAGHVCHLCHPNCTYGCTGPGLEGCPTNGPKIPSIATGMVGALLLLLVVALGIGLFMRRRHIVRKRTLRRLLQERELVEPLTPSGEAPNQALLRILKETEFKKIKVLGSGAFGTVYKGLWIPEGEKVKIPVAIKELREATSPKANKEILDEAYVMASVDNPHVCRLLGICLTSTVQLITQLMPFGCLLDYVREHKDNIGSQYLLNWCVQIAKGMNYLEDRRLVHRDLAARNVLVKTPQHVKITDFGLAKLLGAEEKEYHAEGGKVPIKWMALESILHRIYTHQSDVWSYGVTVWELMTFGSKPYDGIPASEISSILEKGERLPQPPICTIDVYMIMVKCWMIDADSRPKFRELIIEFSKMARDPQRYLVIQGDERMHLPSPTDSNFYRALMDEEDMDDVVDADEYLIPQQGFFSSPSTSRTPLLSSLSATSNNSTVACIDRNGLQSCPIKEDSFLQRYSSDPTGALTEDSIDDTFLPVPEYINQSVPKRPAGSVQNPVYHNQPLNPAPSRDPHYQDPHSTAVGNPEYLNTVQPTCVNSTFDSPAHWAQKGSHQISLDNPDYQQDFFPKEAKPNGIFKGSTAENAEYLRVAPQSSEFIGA

An IC50 (EGFR wild type; [3]) greater than 500 nM, an IC50 [1, 4] of 44 nM and an IC50 (EGFR[T790M/C797S/L858R]; [5]) of 1090 nM were found for `Cc1cc2cc(n1)-c1cnn(C)c1OCCN1CCOCC(C1)n1c(nc3ccccc31)NC2=O` (centres unmarked) [Example B7, 15,21-dimethyl-23,29-dioxa-2,9,11,16,20,21,26-heptaazahexacyclo[24.4.1.1^{13,17}.0^{2,10}.0^{3,8}.0^{18,22}]dotriaconta-3,5,7,9,13(32),14,16,18(22),19-nonaen-12-one] in this work. The IC50 (EGFR (C797S L858R); [6]) was greater than 5000 nM, the IC50 (EGFR L858R/T790M; [7]) was 1960 nM and the IC50 (EGFR Exon19Del/T790M; [8]) was 109 nM. It also gave a GI50 ([2]; BaF3 cells, EGFR DEL19 - T790-C797S, read-out: GI50 DEL19 - T790-C797S/BaF3) of 296 nM, a GI50 ([2]; BaF3 cells, EGFR L858R - T790-C797S, read-out: GI50 L858R - T790-C797S/BaF3) of 300 nM and a GI50 ([2]; BaF3 cells, EGFR L858R - T790M, read-out: GI50 L858R - T790M/BaF3) of 723 nM. For the same molecule, the GI50 ([2]; EGFR DEL19 - T790M, read-out: GI50 DEL19 - T790M) was 420 nM, the GI50 [2, 9] was 346 nM and the GI50 [2, 10] was 334 nM. For the same molecule, the GI50 [2, 11] was 1900 nM, the GI50 (PC-9; [12]) was 667 nM and the IC50 (EGFR Exon19Del; [13]) was 1420 nM. The IC50 (EGFR (d746-750 C797S); [14]) was 627 nM.

An IC50 (EGFR L858R; 1 h, room temperature, read-out: IC50 (nM) @L858R) of 2600 nM, an IC50 (EGFR wild type; EGFR WT, 1 h, room temperature, read-out: IC50 (nM) @WT) greater than 5000 nM and an IC50 ([1]; EGFR T790M-C797S-Del19, 1 mM ATP, 1 h, room temperature, read-out: IC50 (nM) @T790M - C797S - Del19) of 4190 nM were found for `CN1CC2CC1CN2c1ccc2nc3n(c2c1)C12CCC(CN(CCOc4c(cnn4C)-c4cc(cn(C)c4=O)C(=O)N3)C1)C2` (single isomer, unassigned) [Example A105A] in this work. The IC50 (EGFR[T790M/C797S/L858R]; EGFR T790M-C797S-L858R, 1 h, room temperature, read-out: IC50 (nM) @T790M- C797S - L858R) was greater than 5000 nM, the IC50 (EGFR (C797S L858R); EGFR L858-C797S, 1 h, room temperature, read-out: IC50 (nM) @L858-C797S) was 2770 nM and the IC50 (EGFR L858R/T790M; EGFR L858R-T790M, 1 h, room temperature, read-out: IC50 (nM) @L858R-T790M) was greater than 5000 nM. It also gave an IC50 (EGFR Exon19Del/T790M; EGFR Del19-T790M, 1 h, room temperature, read-out: IC50 (nM) @Del19-T790M) greater than 5000 nM, a GI50 ([2]; BaF3 cells, EGFR DEL19-C797S, CellTiter-Glo, read-out: DEL19-C797S/BaF3 GI50) of 100 nM and a GI50 ([2]; BaF3 cells, EGFR DEL19-T790-C797S, CellTiter-Glo, read-out: DEL19-T790-C797S/BaF3 GI50) of 341 nM. It also gave a GI50 ([2]; BaF3 cells, EGFR L858R, CellTiter-Glo, read-out: L858R/BaF3 GI50) of 617 nM, a GI50 ([2]; BaF3 cells, EGFR L858R-C797S, CellTiter-Glo, read-out: L858R-C797S/BaF3 GI50) of 263 nM and a GI50 ([2]; BaF3 cells, EGFR L858R-T790-C797S, CellTiter-Glo, read-out: L858R-T790-C797S/BaF3 GI50) of 652 nM. The GI50 ([2]; BaF3 cells, EGFR L858R-T790M, CellTiter-Glo, read-out: L858R-T790M/BaF3 GI50) was 246 nM, the GI50 ([2]; EGFR DEL19-T790M, CellTiter-Glo, read-out: DEL19-T790M GI50) was 363 nM and the GI50 (PC-9; CellTiter-Glo, read-out: PC9 GI50) was 683 nM. For the same molecule, the IC50 (EGFR Exon19Del; EGFR Del19, 1 mM ATP, 1 h, room temperature) was 381 nM and the IC50 (EGFR (d746-750 C797S); EGFR Del19-C797S, 1 h, room temperature, read-out: IC50 (nM) @Del19-C797S) was 330 nM.

An IC50 (EGFR L858R; 1 h at room temperature, read-out: IC50 @L858R) greater than 5000 nM, an IC50 (EGFR wild type; [3]) greater than 5000 nM and an IC50 [1, 4] of 245 nM were found for `Cc1cc2cc(n1)-c1cnn(C)c1OCCN1CC3CCC(C3)(C1)n1c(nc3ccc(N4CCN(C)CC4)cc31)NC2=O` (single isomer, unassigned) [Example B9A, 15,21-Dimethyl-5-(4-methylpiperazin-1-yl)-23-oxa-2,9,11,16,20,21,26-heptaazaheptacyclo[24.4.1.1^{1,28}.1^{13,17}.0^{2,10}.0^{3,8}.0^{18,22}]tritriaconta-3,5,7,9,13,15,17(33),18(22),19-nonaen-12-one] in this work. It also gave an IC50 (EGFR[T790M/C797S/L858R]; [5]) greater than 5000 nM, an IC50 (EGFR (C797S L858R); [6]) greater than 5000 nM and an IC50 (EGFR L858R/T790M; [7]) greater than 5000 nM. It also gave an IC50 (EGFR Exon19Del/T790M; [8]) of 1070 nM, a GI50 [2, 9] of 83 nM and a GI50 ([2]; Mus musculus, BaF3, 72 h, BaF3 cells, EGFR DEL19 - T790-C797S, read-out: GI50 DEL19 - T790-C797S/BaF3) of 107 nM. The GI50 [2, 10] was 386 nM, the GI50 ([2]; Mus musculus, BaF3, 72 h, BaF3 cells, EGFR L858R - T790-C797S, read-out: GI50 L858R - T790-C797S/BaF3) was 46 nM and the GI50 ([2]; Mus musculus, BaF3, 72 h, BaF3 cells, EGFR L858R - T790M, read-out: GI50 L858R - T790M/BaF3) was 253 nM. The GI50 [2, 11] was 471 nM, the GI50 ([2]; Mus musculus, BaF3, 72 h, EGFR DEL19 - T790M, read-out: GI50 DEL19 - T790M) was 135 nM and the GI50 (PC-9; [12]) was 438 nM. It also gave an IC50 (EGFR Exon19Del; [13]) of 432 nM and an IC50 (EGFR (d746-750 C797S); [14]) of 454 nM.
